{"source": "the supplement of paper PMC10307832"}
{"compound": "CC(C)(C)c1cc(NC(=O)Nc2ccc(-c3cn4c(n3)sc3cc(OCCN5CCOCC5)ccc34)cc2)no1 [Quizartinib] + COc1cc2c(Oc3ccc(NC(=O)C4(C(=O)Nc5ccc(F)cc5)CC4)cc3F)ccnc2cc1OCCCN1CCOCC1 [Foretinib] (partner 0.25 µM)", "experiment": "relative viability (nuclei count vs DMSO), 5 days (fraction); higher = more cells survive", "settings": "first compound 0.1 µM", "summary_of_the_method": "(§1)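 Relative viability divides the nuclei count in treated wells by that in vehicle wells. Lung cancer cell lines were seeded in 1536-well plates, dosed by pin tool the next day, and fixed and stained after 5 days in one step with final 0.05% Triton X-100, 1% formaldehyde and 1 ug/ml Hoechst. Dosing was a single drug or a fixed anchor-drug dose plus five library-drug doses (not always all listed) in √10 steps, and values are medians of duplicate plates imaged at 4×.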"}
{"cell line": "NCI-H1299", "relative viability": 1.12}
{"cell line": "NCI-H1651", "relative viability": 0.769}
{"cell line": "UMC-11", "relative viability": 1.1}
{"cell line": "NCI-H1355", "relative viability": 1.06}
{"cell line": "H3255", "relative viability": 0.763}
{"cell line": "NCI-H647", "relative viability": 1.17}
{"cell line": "NCI-H1623", "relative viability": 0.859}
{"cell line": "Calu-6", "relative viability": 0.899}
{"cell line": "LCLC-97TM1", "relative viability": 0.971}
{"cell line": "NCI-H1703", "relative viability": 0.282}
{"cell line": "LXF-289", "relative viability": 0.888}
{"cell line": "LU99A", "relative viability": 0.603}
{"cell line": "NCI-H2023", "relative viability": 0.742}
{"cell line": "NCI-H2228", "relative viability": 1.02}
{"cell line": "NCI-H1437", "relative viability": 0.949}
{"cell line": "NCI-H1395", "relative viability": 1.03}
{"cell line": "NCI-H2009", "relative viability": 1.21}
{"cell line": "HCC-366", "relative viability": 0.946}
{"cell line": "EBC-1", "relative viability": 0.121}
{"cell line": "NCI-H1915", "relative viability": 1.07}
{"cell line": "COR-L 105", "relative viability": 0.964}
{"cell line": "SK-LU-1", "relative viability": 0.985}
{"cell line": "IA-LM", "relative viability": 1.02}
{"cell line": "SW 900", "relative viability": 0.836}
{"cell line": "NCI-H661", "relative viability": 1.01}
{"cell line": "A549", "relative viability": 1.05}
{"cell line": "NCI-H2342", "relative viability": 0.988}
{"cell line": "SW 1573", "relative viability": 1.04}
{"cell line": "NCI-H1650", "relative viability": 1.03}
{"cell line": "ChaGo-K-1", "relative viability": 0.949}
{"cell line": "COR-L23", "relative viability": 1.02}
{"compound": "CC(C)(C)c1cc(NC(=O)Nc2ccc(-c3cn4c(n3)sc3cc(OCCN5CCOCC5)ccc34)cc2)no1 [Quizartinib] + Cc1cc(Nc2cc(N3CCN(C)CC3)nc(Sc3ccc(NC(=O)C4CC4)cc3)n2)n[nH]1 [Tozasertib] (partner 0.1 µM)", "experiment": "relative viability (nuclei count vs DMSO), 5 days (fraction); higher = more cells survive", "settings": "first compound 0.001 µM", "summary_of_the_method": "as §1"}
{"cell line": "EKVX", "relative viability": 0.176}
{"cell line": "EPLC-272H", "relative viability": 0.226}
{"cell line": "NCI-H520", "relative viability": 0.347}
{"cell line": "NCI-H650", "relative viability": 0.706}
{"cell line": "RERF-LC-KJ", "relative viability": 0.47}
{"cell line": "HCC-827", "relative viability": 0.356}
{"cell line": "SK-MES-1", "relative viability": 0.852}
{"cell line": "NCI-H1651", "relative viability": 0.604}
{"cell line": "NCI-H1355", "relative viability": 0.495}
{"cell line": "H3255", "relative viability": 0.59}
{"cell line": "NCI-H647", "relative viability": 0.267}
{"cell line": "NCI-H1623", "relative viability": 0.392}
{"cell line": "LCLC-97TM1", "relative viability": 0.183}
{"cell line": "LXF-289", "relative viability": 0.16}
{"cell line": "LU99A", "relative viability": 0.288}
{"cell line": "NCI-H2023", "relative viability": 0.278}
{"cell line": "NCI-H2228", "relative viability": 0.2}
{"cell line": "NCI-H1437", "relative viability": 0.372}
{"cell line": "NCI-H1395", "relative viability": 0.873}
{"cell line": "NCI-H2009", "relative viability": 0.692}
{"cell line": "HCC-366", "relative viability": 0.11}
{"cell line": "NCI-H1915", "relative viability": 0.419}
{"cell line": "COR-L 105", "relative viability": 0.344}
{"cell line": "SK-LU-1", "relative viability": 0.268}
{"cell line": "SW 900", "relative viability": 0.57}
{"cell line": "NCI-H661", "relative viability": 0.298}
{"cell line": "NCI-H2342", "relative viability": 0.625}
{"cell line": "SW 1573", "relative viability": 0.163}
{"cell line": "NCI-H1650", "relative viability": 0.42}
{"cell line": "ChaGo-K-1", "relative viability": 0.235}
{"cell line": "COR-L23", "relative viability": 0.175}
{"cell line": "NCI-H522", "relative viability": 0.571}
{"compound": "CC(C)(C)c1cc(NC(=O)Nc2ccc(-c3cn4c(n3)sc3cc(OCCN5CCOCC5)ccc34)cc2)no1 [Quizartinib] + Cc1cc(Nc2cc(N3CCN(C)CC3)nc(Sc3ccc(NC(=O)C4CC4)cc3)n2)n[nH]1 [Tozasertib] (partner 0.1 µM)", "experiment": "relative viability (nuclei count vs DMSO), 5 days (fraction); higher = more cells survive", "settings": "first compound 0.003162 µM", "summary_of_the_method": "as §1"}
{"cell line": "EKVX", "relative viability": 0.323}
{"cell line": "EPLC-272H", "relative viability": 0.208}
{"cell line": "NCI-H520", "relative viability": 0.448}
{"cell line": "NCI-H650", "relative viability": 0.676}
{"cell line": "RERF-LC-KJ", "relative viability": 0.445}
{"cell line": "HCC-827", "relative viability": 0.516}
{"cell line": "NCI-H2087", "relative viability": 0.226}
{"cell line": "SK-MES-1", "relative viability": 0.904}
{"cell line": "NCI-H1651", "relative viability": 0.679}
{"cell line": "UMC-11", "relative viability": 0.194}
{"cell line": "NCI-H1355", "relative viability": 0.542}
{"cell line": "H3255", "relative viability": 0.58}
{"cell line": "NCI-H647", "relative viability": 0.258}
{"cell line": "NCI-H1623", "relative viability": 0.469}
{"cell line": "LCLC-97TM1", "relative viability": 0.218}
{"cell line": "LXF-289", "relative viability": 0.207}
{"cell line": "LU99A", "relative viability": 0.274}
{"cell line": "NCI-H2023", "relative viability": 0.32}
{"cell line": "NCI-H2228", "relative viability": 0.2}
{"cell line": "NCI-H1437", "relative viability": 0.399}
{"cell line": "NCI-H1395", "relative viability": 0.686}
{"cell line": "NCI-H2009", "relative viability": 0.695}
{"cell line": "HCC-366", "relative viability": 0.0914}
{"cell line": "NCI-H1915", "relative viability": 0.427}
{"cell line": "COR-L 105", "relative viability": 0.343}
{"cell line": "SK-LU-1", "relative viability": 0.303}
{"cell line": "SW 900", "relative viability": 0.506}
{"cell line": "NCI-H661", "relative viability": 0.364}
{"cell line": "NCI-H2342", "relative viability": 0.582}
{"cell line": "SW 1573", "relative viability": 0.175}
{"cell line": "HCC-44", "relative viability": 0.867}
{"cell line": "NCI-H1650", "relative viability": 0.366}
{"cell line": "ChaGo-K-1", "relative viability": 0.234}
{"cell line": "COR-L23", "relative viability": 0.178}
{"cell line": "NCI-H522", "relative viability": 0.585}
{"compound": "CC(C)(C)c1cc(NC(=O)Nc2ccc(-c3cn4c(n3)sc3cc(OCCN5CCOCC5)ccc34)cc2)no1 [Quizartinib] + Cc1cc(Nc2cc(N3CCN(C)CC3)nc(Sc3ccc(NC(=O)C4CC4)cc3)n2)n[nH]1 [Tozasertib] (partner 0.1 µM)", "experiment": "relative viability (nuclei count vs DMSO), 5 days (fraction); higher = more cells survive", "settings": "first compound 0.01 µM", "summary_of_the_method": "as §1"}
{"cell line": "EKVX", "relative viability": 0.347}
{"cell line": "EPLC-272H", "relative viability": 0.246}
{"cell line": "NCI-H520", "relative viability": 0.444}
{"cell line": "NCI-H650", "relative viability": 0.694}
{"cell line": "RERF-LC-KJ", "relative viability": 0.53}
{"cell line": "HCC-827", "relative viability": 0.458}
{"cell line": "NCI-H2087", "relative viability": 0.233}
{"cell line": "SK-MES-1", "relative viability": 0.864}
{"cell line": "NCI-H1651", "relative viability": 0.645}
{"cell line": "UMC-11", "relative viability": 0.204}
{"cell line": "NCI-H1355", "relative viability": 0.51}
{"cell line": "H3255", "relative viability": 0.508}
{"cell line": "NCI-H647", "relative viability": 0.284}
{"cell line": "NCI-H1623", "relative viability": 0.449}
{"cell line": "LCLC-97TM1", "relative viability": 0.172}
{"cell line": "LXF-289", "relative viability": 0.196}
{"cell line": "LU99A", "relative viability": 0.262}
{"cell line": "NCI-H2023", "relative viability": 0.272}
{"cell line": "NCI-H2228", "relative viability": 0.208}
{"cell line": "NCI-H1437", "relative viability": 0.422}
{"cell line": "NCI-H1395", "relative viability": 0.782}
{"cell line": "NCI-H2009", "relative viability": 0.628}
{"cell line": "HCC-366", "relative viability": 0.0628}
{"cell line": "NCI-H1915", "relative viability": 0.42}
{"cell line": "COR-L 105", "relative viability": 0.42}
{"cell line": "SK-LU-1", "relative viability": 0.378}
{"cell line": "NCI-H661", "relative viability": 0.352}
{"cell line": "NCI-H2342", "relative viability": 0.575}
{"cell line": "SW 1573", "relative viability": 0.225}
{"cell line": "HCC-44", "relative viability": 0.849}
{"cell line": "NCI-H1650", "relative viability": 0.369}
{"cell line": "ChaGo-K-1", "relative viability": 0.209}
{"cell line": "COR-L23", "relative viability": 0.159}
{"cell line": "NCI-H522", "relative viability": 0.585}
{"compound": "CC(C)(C)c1cc(NC(=O)Nc2ccc(-c3cn4c(n3)sc3cc(OCCN5CCOCC5)ccc34)cc2)no1 [Quizartinib] + Cc1cc(Nc2cc(N3CCN(C)CC3)nc(Sc3ccc(NC(=O)C4CC4)cc3)n2)n[nH]1 [Tozasertib] (partner 0.1 µM)", "experiment": "relative viability (nuclei count vs DMSO), 5 days (fraction); higher = more cells survive", "settings": "first compound 0.03162 µM", "summary_of_the_method": "as §1"}
{"cell line": "EKVX", "relative viability": 0.369}
{"cell line": "EPLC-272H", "relative viability": 0.33}
{"cell line": "NCI-H520", "relative viability": 0.393}
{"cell line": "NCI-H650", "relative viability": 0.689}
{"cell line": "RERF-LC-KJ", "relative viability": 0.248}
{"cell line": "HCC-827", "relative viability": 0.405}
{"cell line": "NCI-H2087", "relative viability": 0.189}
{"cell line": "NCI-H1651", "relative viability": 0.351}
{"cell line": "UMC-11", "relative viability": 0.223}
{"cell line": "NCI-H1355", "relative viability": 0.442}
{"cell line": "H3255", "relative viability": 0.584}
{"cell line": "NCI-H647", "relative viability": 0.329}
{"cell line": "NCI-H1623", "relative viability": 0.441}
{"cell line": "LCLC-97TM1", "relative viability": 0.248}
{"cell line": "LXF-289", "relative viability": 0.21}
{"cell line": "LU99A", "relative viability": 0.259}
{"cell line": "NCI-H2228", "relative viability": 0.228}
{"cell line": "NCI-H1437", "relative viability": 0.367}
{"cell line": "NCI-H1395", "relative viability": 0.814}
{"cell line": "NCI-H2009", "relative viability": 0.653}
{"cell line": "HCC-366", "relative viability": 0.0575}
{"cell line": "NCI-H1915", "relative viability": 0.401}
{"cell line": "COR-L 105", "relative viability": 0.36}
{"cell line": "SK-LU-1", "relative viability": 0.319}
